We go through ten molecules from publication PMC9782603 (Viruses, 2022).

Values after ≈ are worked out from the molar mass of the structure shown. Like-named read-outs stand apart in the source and are kept apart here. Where only a bound is given, the exact number is not on record here.

Series [1] has as its system HCV GT-1b replicon containing Huh-7 cells. Details: method as in earlier work. The note with it: cited from earlier work.
For another series, the system named is NS5B. The note with it: cited from earlier work.
Series [2] deals with HCV GT 1b subgenomic reporter replicon (strain Con1). The series is described as follows: HCV GT 1b subgenomic replicon luciferase antiviral assay in Huh5-2 cells. Type of series: cell-based. The following applies: Huh5-2, GT 1b (Con1), F-Luc, 3 days, read-out: EC50 HCV Replicon 1b. A general note: A replicon is a self-replicating genome or part of one, used to study replication in cells.

The subject of series [3] is HCV GT 3a (strain S52) replicon. The series is described as follows: HCV GT 3a subgenomic replicon luciferase antiviral assay in Huh7.5-3a cells. It is filed as cell-based. The note with it: Hepatitis C virus, GT3A, 72 h; Huh7.5-3a, GT 3a (S52), F-Luc, 3 days; read-out: EC50 HCV Replicon 3a.
Series [4] deals with HCV GT 4a (strain ED43) replicon. The series is described as follows: HCV GT 4a subgenomic replicon luciferase antiviral assay in Huh7.5-4a cells. Type of series: cell-based. The note with it: Hepatitis C virus, GT4A, 72 h; Huh7.5-4a, GT 4a (ED43), F-Luc, 3 days; read-out: EC50 HCV Replicon 4a.
Series [5] is described as follows: alamarBlue reduction cytotoxicity assay in replicon cells. It is filed as cell-based. The following applies: human, HCV Replicon 1b cells. A general note: Alamar Blue is a resazurin reagent that responds to reducing activity.
Another series concerns HCV GT 2a. The series is described as follows: Activity against HCV GT 2a (data not shown). Type of series: cell-based.
Another series has as its system HCV GT-1b replicon. The note with it: HCV GT-1b replicon luciferase reporter assay (n ≥ 2); cited from earlier work.
Series [6] can be described thus: Water solubility by HPLC-UV after 24 h agitation. Type of series: physicochemical. The following applies: thermodynamic from solid, deionized water, ambient temperature.
Series [7] concerns HCV GT-1b RNA (Con1 replicon). The series is described as follows: Viral RNA quantification by RT-qPCR in Huh5-2 replicon cells. The following applies: (+) strand HCV RNA by RT-qPCR, Huh5-2 cells, normalized to YWHAZ. It is filed as cell-based. For orientation: Quantitative PCR measures a nucleic acid by following its amplification.
The test system of the next series is HCV GT 1b (Con1). The series is described as follows: Drug combination of 11a with daclatasvir in Huh5-2 replicon cells. Type of series: cell-based.
[8] abbreviates: reported NS5B TP-2 inhibitors, Figure 1.
Setting [9] is: Hepatitis C virus, GT1B, Huh-5-2, 72 h.

For `CC1CCC(C(=O)N(c2cc(C#CC(C)(C)C)sc2C(=O)O)C(C)C)CC1` (centres unmarked) [II], the EC50 in [1] was 26 nM. The IC50 in the series on NS5B (setting [8]) was 86 nM.
`Cc1cccc(-n2c(C)nc(=O)c3cc(NC(=O)COc4ccc(Cl)cc4)ccc32)c1` [11e, 2-(4-Chlorophenoxy)-N-(2-methyl-4-oxo-1-(m-tolyl)-1,4-dihydroquinazolin-6-yl)acetamide]: the melting point amounted to 283 °C. Further, in series [2] (setting [9]), the EC50 was 6240 ± 40 nM. In addition, the EC50 in [3] was determined as 8400 ± 150 nM. The EC50 in [4] came out at 15200 ± 290 nM. For the same molecule, half-maximal cytotoxicity in [5] (CC50 at 3 days) was put at 36600 ± 4190 nM. In addition, in the series on HCV GT 2a, the “activity against GT 2a” value is recorded as “no activity”.
As to `Cc1ccc(S(=O)(=O)Nc2cc(-c3ccc(F)cc3)sc2C(=O)O)cc1` [I], the IC50 with NS5B (setting [8]) is 290 nM.
As to `CCc1ccc(/C=C2\SC(N[C@H](C(=O)O)c3ccc(F)cc3)=NC2=O)o1` [III], the IC50 in the series with NS5B (enzymatic assays) is 3000 nM.
As for `O=c1ncn(Cc2c(F)cc(F)cc2F)c2ccc(Oc3cccc(-c4ccccn4)c3C(F)(F)F)cc12` [VIII], the EC50 in the series with HCV GT-1b replicon is 310 nM.
With `Cc1ccc(S(=O)(=O)Nc2ccc(Oc3ccccc3)cc2C(=O)O)cc1` [V], the EC50 in the series on HCV GT-1b replicon is above 30000 nM. In the series with NS5B (setting [8]), the 50% inhibitory concentration (IC50) was 220 nM.
For `CC1CCC(C(=O)N(c2cc(-c3ccccc3)sc2C(=O)O)C(C)C)CC1` (centres unmarked) [IV], in the series with NS5B (setting [8]), the half-maximal inhibitory concentration (IC50) was 28 nM.
As for `Cc1nc(=O)c2cc(NC(=O)COc3ccc(Cl)cc3)ccc2n1-c1ccccc1` [11b, 2-(4-Chlorophenoxy)-N-(2-methyl-4-oxo-1-phenyl-1,4-dihydroquinazolin-6-yl)acetamide], the melting point is 254 °C. Moreover, in [2] (setting [9]), the half-maximal effective concentration (EC50) was 1380 ± 40 nM. In addition, in [3], the EC50 came out at 11600 ± 1260 nM. Further, in series [4], the half-maximal effective concentration (EC50) was above 10000 nM. The molecule further displayed a CC50 at 3 days in [5] of 99010 ± 90 nM. Besides, in [6], the concentration in solution (solubility at 24 h) came to 3.5 µg/mL (≈ 8.34 µM). For the same molecule, in the series on HCV GT 2a, the “activity against GT 2a” value is “no activity”.
Regarding `Cc1ccc(OCC(=O)Nc2ccc3c(c2)c(=O)nc(C)n3-c2ccccc2)cc1` [11a, N-(2-Methyl-4-oxo-1-phenyl-1,4-dihydroquinazolin-6-yl)-2-(p-tolyloxy)acetamide], the melting point is 268 °C. The concentration for a half-maximal effect (EC50) in [2] (setting [9]) stood at 984 nM. Besides, the EC50 in series [2] stood at 980 ± 60 nM. Moreover, in series [3], the EC50 was above 10000 nM. In addition, in series [4], the EC50 is above 10000 nM. Moreover, in [5], it took 157500 ± 30 nM to reach half-maximal cytotoxicity (CC50 at 3 days). Further, the EC50 in [7] came to 1130 nM. Further, in the series with HCV GT 1b (Con1) (11a in combination with DCV, Huh5-2, in words), the “Combinatory effect with daclatasvir” value is given as “additive effect”. The “CDI (coefficient of drug interaction)” value in the series with HCV GT 1b (Con1) (11a with daclatasvir (DCV), Huh5-2) is “≈ 1”. The CDI in the series with HCV GT 1b (Con1) (DCV 30 pM + 11a 0.1 μM, Huh5-2) is 0.949. Further, the CDI with HCV GT 1b (Con1) (DCV 30 pM + 11a 1 μM, Huh5-2) was found to be 0.995. This molecule registered a solubility at 24 h in [6] of 2.7 µg/mL (≈ 6.76 µM).
Take `CC1CCC(C(=O)N(c2ccc(Oc3ncccc3C(F)(F)F)cc2C(=O)O)C(C)C)CC1` (centres unmarked) [VI]: the EC50 in the series on HCV GT-1b replicon is 95 nM. For the same molecule, the IC50 in the series with NS5B (setting [8]) was 80 nM.

A word on the EC50: it is the concentration that produces a half-maximal response. As a reminder, the IC50 is the concentration needed to halve the response being measured. For orientation: CC50 means the concentration that lowers cell viability or growth by half. Low readings indicate greater toxicity to the cells, high ones lower toxicity to the cells. One may read the melting point as the temperature of the solid-liquid transition. As a reminder, the solubility is the concentration that dissolves in the medium under given conditions.
